Measured values as given in patent publication US20120237441A9, “ENHANCED B CELL CYTOTOXICITY OF CDIM BINDING ANTIBODY” (priority 2003, published 2012).
Several values for one entry are separate records, joined by “and”; a condition that tells them apart may be missing. Equal entries are not always repeated.

What was measured:
Nalm-6 cells = experiment: Cell viability assay using PI staining and forward scatter; type: cell-based, human; settings: for viability: cytochalasin 5 μgs/ml or jasplakinolide 3 μgs/ml for 2 hr, then control antibodies; for effect of caspase inhibitor on cell viability: 10 μM for 2 hr at 37° C. before treatment with mAb 216
Description: The integrity of the plasma membrane was assessed by the ability of cells to exclude propidium iodide (PI, Sigma, St. Louis, Mo.). The level of PI incorporation was quantitated by flow cytometry on FACScan (Becton-Dickinson, San Jose Calif.) interfaced with VersatermPro and FlowJo software at Stanford's FACS facility. PI-negative cells with normal size as measured by forward scatter signals were considered live cells.
Briefly, cells were treated as specified in each experiment and resuspended in PBS with 3% FCS and 10 μgs/ml of PI. In experiments where toxicity was evaluated in Ca-free medium, cells were resuspended in appropriate media with or without calcium to which 10 μgs/ml PI was added. Since previous studies have shown that mAb 216-mediated toxicity is remarkably pronounced at lower temperatures (Bhat, N. M., et al. (1996) Clin. Exp. Immunol. 105:183), precautions were taken to keep all media and cells at 37° C. and the centrifuge at room temperature.
Cytochalasin was obtained from Sigma and jasplakinolide was obtained from Molecular Probes (Eugene, Oreg.). Caspase inhibitors, Ac-IETD-CHO and Ac-DEVD-CHO were obtained from PharMingen (San Diego, Calif.). Nalm-6 cells (1×10^6 cells/ml) were treated with jasplakinolide (3 μgs/ml), cytochalasin (5 μgs/ml), or caspase inhibitors (10 μM) for 2 hr at 37° C. before treatment with mAb 216. Control samples with equivalent amounts of DMSO were set in parallel. Cells were then exposed to 25 μg of mAb 216 or control Ab and analyzed by flow cytometry.
Since exocytosis of lysosomes is known to be a calcium dependent phenomenon (Miyake, K., and P. L. McNeil (1995) J. Cell Biol. 131:1737; Bi, G. Q., et al. (1995) J. Cell Biol. 131:1747), membrane wounding by mAb 216 nd repair of the wound was tested in calcium free and normal calcium conditions. The cell viability of Nalm-6 cells when treated with two VH4-34 encoded mAbs, mAb 216 at 50, 25 and 12.5 ng/ml concentrations, and Y2K at 50 ng/ml, was tested in the presence of media with and without calcium.
Brefeldin-A was obtained from Sigma. Nalm-6 cells (1×10^6 cells/ml) were treated with BFA (25 μg/ml) for 2 hr at 37° C. before treatment with mAb 216. Control samples with equivalent amounts of DMSO were set in parallel. Cells were then exposed to 25 μg of mAb 216 or control Ab and analyzed by flow cytometry.

Nalm 6 = experiment: In vitro cytotoxicity of mAb216 in combination with chemotherapeutic agents; type: cell-based, human; settings: for Live cells ×10^5 / % change in live cells: 48 h; for % change in live cells: versus control
Description: (§1) Three cell lines which have been derived from ALL blasts of different genotype and phenotype, Nalm 6, REH, and SUPB15, were incubated with mAb 216 alone or in combination with vincristine (VCR), for 48 hours at 37° C.
(§2) In vitro cytotoxicity of mAb216 in combination with single chemotherapeutic agents was tested. Three cell lines which have been derived from ALL blasts of different genotype and phenotype, Nalm 6, REH, and SUPB 15, were incubated with mAb 216 alone or in combination with vincristine (VCR), daunorubicin (DNR), or L-asparaginase (ASPR).

Reh = experiment: as above; type: cell-based, human; settings: 48 h; for % change in live cells: versus control
Description: as §1, §2

SUP B15 = experiment: as above; type: cell-based; settings: 48 h; for % change in live cells: versus control
Description: as §1, §2

How did the viability (Nalm-6 cells) turn out when `C/C1=C\[C@H](C)C[C@H](C)OC(=O)C[C@H](c2ccc(O)cc2)NC(=O)[C@@H](Cc2c(Br)[nH]c3ccccc23)N(C)C(=O)[C@H](C)NC(=O)[C@@H](C)C1` [jasplakinolide] was run?
Its viability is “did not show a decrease in viability”.

Which “viability of cells treated with control antibodies” value (Nalm-6 cells; BFA 25 μg/ml for 2 hr) does the source give for `C[C@H]1CCC/C=C/[C@@H]2C[C@H](O)C[C@H]2[C@H](O)/C=C/C(=O)O1` [BFA, Brefeldin A] here?
Its value is “no effect”.

With `CC[C@]1(O)C[C@H]2CN(CCc3c([nH]c4ccccc34)[C@@](C(=O)OC)(c3cc4c(cc3OC)N(C=O)[C@H]3[C@@](O)(C(=O)OC)[C@H](OC(C)=O)[C@]5(CC)C=CCN6CC[C@]43[C@@H]65)C2)C1` [VCR, vincristine] as the molecule, how does the “Live cells ×10^5” value (Nalm 6; VCR 0.2 ng/ml) read?
The value was 13 ×10^5.

What about the “% change in live cells” value (Nalm 6; VCR 0.2 ng/ml) of the same molecule?
Its value is 0%.

What about the “Live cells ×10^5” value (Nalm 6; VCR 2 ng/ml) of the same molecule?
Its value is 5 ×10^5.

What about the “% change in live cells” value (Nalm 6; VCR 2 ng/ml) of the same molecule?
The value was 54%.

What about the “cell death due to vincristine alone” value (Nalm 6; vincristine 0.2 ng/ml, 48 hours at 37° C.) of the same molecule?
Its value is “no cell death occurred”.

And the “Live cells ×10^5” value (Reh; VCR 2 ng/ml)?
The value was 4.2 ×10^5 and 7.7 ×10^5.

What about the “Live cells ×10^5” value (SUP B15; VCR 2 ng/ml) of the same molecule?
The value was 2.8 ×10^5.

What about the “% change in live cells” value (SUP B15; VCR 2 ng/ml) of the same molecule?
Its value is 45%.

cytochalasin was tested. Which viability (Nalm-6 cells) did it give?
The viability was “did not show a decrease in viability”.

How did the “effect of caspase inhibitor on cell viability” value (Nalm-6 cells) turn out when Ac-IETD-aldehyde was run?
The value was “did not alter cell viability”.

How did the “effect of caspase inhibitor on cell viability” value (Nalm-6 cells) turn out when Ac-DEVD-CHO was run?
The value was “did not alter cell viability”.

With `COc1cccc2c1C(=O)c1c(O)c3c(c(O)c1C2=O)C[C@@](O)(C(C)=O)C[C@@H]3O[C@H]1C[C@H](N)[C@H](O)[C@H](C)O1` [DNR, daunorubicin] as the molecule, how does the “Live cells ×10^5” value (Nalm 6; DNR 5 ng/ml) read?
Its value is 4.3 ×10^5 and 4.5 ×10^5.

What about the “% change in live cells” value (Nalm 6; DNR 5 ng/ml) of the same molecule?
Its value is 47% and 59%.

What about the “Live cells ×10^5” value (Reh; DNR 5 ng/ml) of the same molecule?
Its value is 4.5 ×10^5.

What about the “% change in live cells” value (Reh; DNR 5 ng/ml) of the same molecule?
The value was 65%.

What about the “Live cells ×10^5” value (SUP B15; DNR 4 ng/ml) of the same molecule?
The value was 0.44 ×10^5.

And the “% change in live cells” value (SUP B15; DNR 4 ng/ml)?
Its value is 91%.

B1: L-asparaginase (protein, UniProt P00805 23-348, looked up)
L-asparaginase 2: LPNITILATGGTIAGGGDSATKSNYTVGKVGVENLVNAVPQLKDIANVKGEQVVNIGSQDMNDNVWLTLAKKINTDCDKTDGFVITHGTDTMEETAYFLDLTVKCDKPVVMVGAMRPSTSMSADGPFNLYNAVVTAADKASANRGVLVVMNDTVLDGRDVTKTNTTDVATFKSVNYGPLGYIHNGKIDYQRTPARKHTSDTPFDVSKLNELPKVGIVYNYANASDLPAKALVDAGYDGIVSAGVGNGNLYKSVFDTLATAAKTGTAVVRSSRVPTGATTQDAEVDDAKYGFVASGTLNPQKARVLLQLALTQTKDPQQIQQIFNQY
Which results are given for B1?
Live cells ×10^5 (Nalm 6; ASPR 0.8 U/ml): 9.2 ×10^5; % change in live cells (Nalm 6; ASPR 0.8 U/ml): 23%; Live cells ×10^5 (Reh; ASPR 0.8 U/ml): 6.2 ×10^5; % change in live cells (Reh; ASPR 0.8 U/ml): 35%; Live cells ×10^5 (SUP B15; ASPR 0.8 U/ml): 3 ×10^5; % change in live cells (SUP B15; ASPR 0.8 U/ml): 47%
